{
  "source": "ChEMBL document CHEMBL4680360",
  "about": "“Novel Oxazine Monoacylglycerol Lipase (MAGL) Inhibitors” (ACS Med Chem Lett, 2021)",
  "target": "T1, Monoglyceride lipase (Homo sapiens, UniProt Q99685)",
  "T1 sequence (Q99685 whole entry)": "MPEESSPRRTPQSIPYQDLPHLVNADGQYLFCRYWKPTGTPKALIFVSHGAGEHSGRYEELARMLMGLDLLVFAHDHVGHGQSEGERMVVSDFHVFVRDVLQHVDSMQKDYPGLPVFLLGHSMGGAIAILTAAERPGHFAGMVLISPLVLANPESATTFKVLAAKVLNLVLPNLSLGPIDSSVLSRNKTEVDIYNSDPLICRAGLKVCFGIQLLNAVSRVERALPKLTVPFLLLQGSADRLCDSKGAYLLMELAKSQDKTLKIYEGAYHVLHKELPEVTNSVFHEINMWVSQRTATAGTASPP",
  "assay": "Inhibition of MAGL (unknown origin) using 2-AG as substrate incubated for 15 mins followed by substrate addition and measured after 30 mins by mass spectrophotometry",
  "note": "pIC50: −log10 of the molar value.",
  "data": [
    {"smiles": "Cc1ccc([C@@H](c2ccccc2)C2CCN(C(=O)N3CC[C@@H]4OCC(=O)N[C@@H]4C3)CC2)cc1", "values": [
      {"measurement": "pIC50", "result": 10.00}
    ]}
  ]
}
